In US10208019B2, “GLP-1 receptor agonists and uses thereof” (Pfizer Inc., priority 2016, dated 2019) one finds EC50 and Emax data, which are given here for 20 compounds.

Assay [1] addresses human GLP-1R (Homo sapiens (Human), UniProt P43220, L260F). As to the kind of experiment: CHO GLP-1R Clone C6—Assay 2: HTRF cAMP cell-based functional agonist assay (low GLP-1R density). Particulars: for pEC50: CHO GLP-1R Clone C6, cAMP HTRF, geometric mean; for Emax: read-out: Assay 2 Emax (%). A general note: Time-resolved FRET reads energy transfer from a long-lived donor to a nearby acceptor.
Procedure: GLP-1R-mediated agonist activity was determined with a cell-based functional assay utilizing an HTRF (Homogeneous Time-Resolved Fluorescence) cAMP detection kit (cAMP HI Range Assay Kit; Cis Bio cat #62AM6PEJ) that measures cAMP levels in the cell. The method is a competitive immunoassay between native cAMP produced by the cells and exogenous cAMP labeled with the dye d2. The tracer binding is visualized by a mAb anti-cAMP labeled with Cryptate. The specific signal (i.e. energy transfer) is inversely proportional to the concentration of cAMP in either a standard or an experimental sample.
The human GLP-1R coding sequence (NCBI Reference Sequence NP_002053.3, including naturally-occurring variant Leu260Phe) was subcloned into pcDNA5-FRT-TO and a clonal CHO cell line stably expressing a low receptor density was isolated using the Flp-In™ T-Rex™ System, as described by the manufacturer (ThermoFisher).
Cells were removed from cryopreservation, re-suspended in 40 mL of Dulbecco's Phosphate Buffered Saline (DPBS-Lonza Cat #17-512Q) and centrifuged at 800×g for 5 min at 22° C. The DPBS was aspirated, and the cell pellet was re-suspended in 10 mL of complete growth medium (DMEM:F12 1:1 Mixture with HEPES, L-Gln, 500 mL (DMEM/F12 Lonza Cat #12-719F), 10% heat inactivated fetal bovine serum (Gibco Cat #16140-071), 5 mL of 100× Pen-Strep (Gibco Cat #15140-122), 5 mL of 100× L-Glutamine (Gibco Cat #25030-081), 700 μg/mL Hygromycin (Invitrogen Cat #10687010) and 15 μg/mL Blasticidin (Gibco Cat #R21001). A 1 mL sample of the cell suspension in growth media was counted on a Becton Dickinson ViCell to determine cell viability and cell count per mL. The remaining cell suspension was then adjusted with growth media to deliver 1600 viable cells per well using a Matrix Combi Multidrop reagent dispenser, and the cells were dispensed into a white 384 well tissue culture treated assay plate (Corning 3570). The assay plate was then incubated for 48 h at 37° C. in a humidified environment (95% O2, 5% CO2)
Varying concentrations of each compound to be tested (in DMSO) were diluted in assay buffer [HBSS with Calcium/Magnesium (Lonza/BioWhittaker cat #10-527F)/0.1% BSA (Sigma Aldrich cat #A7409-1L)/20 mM HEPES (Lonza/BioWhittaker cat #17-737E)] containing 100 μM 3-isobutyl-1-methylxanthin (IBMX; Sigma cat #15879). The final DMSO concentration in the compound/assay buffer mixture is 1%.
After 48 h, the growth media was removed from the assay plate wells, and the cells were treated with 20 μL of the serially diluted compound in assay buffer for 30 min at 37° C. in a humidified environment (95% O2, 5% CO2). Following the 30 min incubation, 10 μL of labeled d2 cAMP and 10 μL of anti-cAMP antibody (both diluted 1:20 in cell lysis buffer; as described in the manufacturer's assay protocol) were added to each well of the assay plate. The plates were then incubated at room temperature and after 60 minutes, changes in the HTRF signal were read with an Envision 2104 multi-label plate reader using excitation of 330 nm and emissions of 615 and 665 nm. Raw data were converted to nM cAMP by interpolation from a cAMP standard curve (as described in the manufacturer's assay protocol) and the percent effect was determined relative to a saturating concentration of the full agonist GLP-1 (1 μM) included on each plate. EC50 determinations were made from agonist dose response curves analyzed with a curve fitting program using a 4-parameter logistic dose response equation.

For assay [2], the target named is human GLP-1R (Homo sapiens, UniProt P43220, G168S). As to the kind of experiment: CHO GLP-1R Clone H6—Assay 1: HTRF cAMP cell-based functional agonist assay (high GLP-1R density). The note with it: for pEC50: read-out: Assay 1 EC50, CHO GLP-1R Clone H6, cAMP HTRF, geometric mean.
The mark [3] stands for this setting: CHO GLP-1R Clone C6, relative to saturating concentration of full agonist GLP-1 (1 μM), arithmetic mean.
Where [4] appears, read: read-out: Assay 1 Emax (%), CHO GLP-1R Clone H6, relative to saturating concentration of full agonist GLP-1 (1 μM), arithmetic mean.

pEC50: −log10 of the molar value. Read-outs that look alike come from different tables or passages of the source.

Sequence of human GLP-1R (Homo sapiens, UniProt P43220, G168S) (P43220 24-463 G168S limits assumed): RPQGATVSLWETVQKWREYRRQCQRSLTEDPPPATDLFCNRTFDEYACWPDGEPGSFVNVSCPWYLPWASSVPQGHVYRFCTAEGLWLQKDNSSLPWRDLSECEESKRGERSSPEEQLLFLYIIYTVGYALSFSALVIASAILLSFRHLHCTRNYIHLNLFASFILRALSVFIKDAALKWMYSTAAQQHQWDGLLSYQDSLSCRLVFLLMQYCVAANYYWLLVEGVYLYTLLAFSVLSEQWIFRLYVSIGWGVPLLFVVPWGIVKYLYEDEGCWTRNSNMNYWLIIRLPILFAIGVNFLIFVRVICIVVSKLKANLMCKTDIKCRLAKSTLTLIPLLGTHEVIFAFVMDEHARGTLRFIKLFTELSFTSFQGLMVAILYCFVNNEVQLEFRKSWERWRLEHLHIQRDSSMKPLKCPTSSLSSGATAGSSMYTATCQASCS
Sequence of human GLP-1R (Homo sapiens (Human), UniProt P43220, L260F) (P43220 24-463 L260F): as the sequence (P43220 24-463 G168S limits assumed) above, with S145G, L237F counted along it

For orientation: pEC50 means the EC50 on a negative log10 scale, so that one unit is a factor of ten. One may read the Emax as the size of the effect at its maximum, as opposed to the concentration needed. Turning to `Cn1c(CN2CCC(c3cccc(OCc4ccc(Cl)cc4F)n3)CC2)nc2cnc(C(=O)O)cc21` [Example 2A-03, 2-((4-(6-((4-Chloro-2-fluorobenzyl)oxy)pyridin-2-yl)piperidin-1-yl)methyl)-1-methyl-1H-imidazo[4,5-c]pyridine-6-carboxylic acid], the pEC50 at human GLP-1R [1] was 5.92; at human GLP-1R [2], 6.82. Also, the Emax was 44% at human GLP-1R [1] (setting [3]) and 74% at human GLP-1R [2] (setting [4]).

Consider `Cn1c(CN2CCC(c3cccc(OCc4ccc(Cl)cc4F)n3)CC2)nc2ncc(C(=O)O)cc21` [Example 2A-04, 2-[(4-{6-[(4-chloro-2-fluorobenzyl)oxy]pyridin-2-yl}piperidin-1-yl)methyl]-1-methyl-1H-imidazo[4,5-b]pyridine-6-carboxylic acid], for which the pEC50 on human GLP-1R [1] is 6.82; on human GLP-1R [2], 7.44. Further, the Emax on human GLP-1R [1] (setting [3]) amounted to 92%; at human GLP-1R [2] (setting [4]), 84%.

In the case of `O=C(O)c1cc2c(cn1)nc(CN1CCC(c3cccc(OCc4ccc(Cl)cc4F)n3)CC1)n2C[C@@H]1CCO1` [Example 2A-05, 2-[(4-{6-[(4-chloro-2-fluorobenzyl)oxy]pyridin-2-yl}piperidin-1-yl)methyl]-1-[(2S)-oxetan-2-ylmethyl]-1H-imidazo[4,5-c]pyridine-6-carboxylic acid], the pEC50 at human GLP-1R [1] was 6.82; on human GLP-1R [2] it was 8.22. For the same compound, the Emax at human GLP-1R [1] (setting [3]) amounted to 84%; at human GLP-1R [2] (setting [4]), 73%.

With `O=C(O)c1cc2c(cn1)nc(CN1CCC(c3cccc(OCc4ccc(Cl)cc4F)n3)CC1)n2Cc1ncco1` [Example 2A-06, 2-[(4-{6-[(4-chloro-2-fluorobenzyl)oxy]pyridin-2-yl}piperidin-1-yl)methyl]-1-(1,3-oxazol-2-ylmethyl)-1H-imidazo[4,5-c]pyridine-6-carboxylic acid], the pEC50 at human GLP-1R [1] was 6.77; at human GLP-1R [2], 8.05. The Emax came to 85% on human GLP-1R [1] (setting [3]) and 82% at human GLP-1R [2] (setting [4]).

As to `COCCn1c(CN2CCC(c3cccc(OCc4ccc(Cl)cc4F)n3)CC2)nc2cnc(C(=O)O)cc21` [Example 2A-07, 2-[(4-{6-[(4-chloro-2-fluorobenzyl)oxy]pyridin-2-yl}piperidin-1-yl)methyl]-1-(2-methoxyethyl)-1H-imidazo[4,5-c]pyridine-6-carboxylic acid], the pEC50 at human GLP-1R [1] is 5.80; on human GLP-1R [2] it was 6.85. Moreover, the Emax stood at 46% on human GLP-1R [1] (setting [3]) and 72% on human GLP-1R [2] (setting [4]).

`COCCn1c(CN2CCC(c3cccc(OCc4ccc(Cl)cc4F)n3)CC2)nc2ccc(C(=O)O)c(F)c21` [Example 2A-08, 2-[(4-{6-[(4-chloro-2-fluorobenzyl)oxy]pyridin-2-yl}piperidin-1-yl)methyl]-7-fluoro-1-(2-methoxyethyl)-1H-benzimidazole-6-carboxylic acid]: the values for the pEC50 on human GLP-1R [1] and at human GLP-1R [2] were 7.03 and 8.24, respectively. Also, the Emax at human GLP-1R [1] (setting [3]) worked out at 76%; at human GLP-1R [2] (setting [4]), 72%.

As to `Cn1c(CN2CCC(c3cccc(OCc4ccc(Cl)cc4F)n3)CC2)nc2cc(F)c(C(=O)O)cc21` [Example 2A-09, 2-[(4-{6-[(4-chloro-2-fluorobenzyl)oxy]pyridin-2-yl}piperidin-1-yl)methyl]-5-fluoro-1-methyl-1H-benzimidazole-6-carboxylic acid], the pEC50 on human GLP-1R [1] is 5.66; at human GLP-1R [2] it was 6.92. The results for the Emax at human GLP-1R [1] (setting [3]) and on human GLP-1R [2] (setting [4]) were 83% and 76%, respectively.

As for `COCCn1c(CN2CCC(c3cccc(OCc4ccc(Cl)cc4F)n3)CC2)nc2ncc(C(=O)O)nc21` [Example 2A-10, 2-[(4-{6-[(4-chloro-2-fluorobenzyl)oxy]pyridin-2-yl}piperidin-1-yl)methyl]-1-(2-methoxyethyl)-1H-imidazo[4,5-b]pyrazine-6-carboxylic acid], the pEC50 at human GLP-1R [1] was 6.17; at human GLP-1R [2], 7.37. For the same compound, the Emax on human GLP-1R [1] (setting [3]) came to 110%; on human GLP-1R [2] (setting [4]), 82%.

`Cn1c(CN2CCC(c3cccc(OCc4ccc(Cl)cc4F)n3)CC2)nc2cc(Cl)c(C(=O)O)cc21` [Example 2A-13, 5-chloro-2-[(4-{6-[(4-chloro-2-fluorobenzyl)oxy]pyridin-2-yl}piperidin-1-yl)methyl]-1-methyl-1H-benzimidazole-6-carboxylic acid]: the results for the pEC50 at human GLP-1R [1] and at human GLP-1R [2] were under 4.82 and 6.11, respectively. Also, the Emax turned out to be 100% at human GLP-1R [1] (setting [3]) and 78% at human GLP-1R [2] (setting [4]).

Regarding `COCCn1c(CN2CCC(c3cccc(OCc4ccc(C#N)cc4)n3)CC2)nc2cc(F)c(C(=O)O)cc21` [Example 2A-14, 2-[(4-{6-[(4-cyanobenzyl)oxy]pyridin-2-yl}piperidin-1-yl)methyl]-5-fluoro-1-(2-methoxyethyl)-1H-benzimidazole-6-carboxylic acid], the pEC50 at human GLP-1R [1] is 5.52; on human GLP-1R [2], 6.96. The Emax at human GLP-1R [1] (setting [3]) amounted to 92%; at human GLP-1R [2] (setting [4]), 71%.

Turning to `COCCn1c(CN2CCC(c3cccc(OCc4ccc(C#N)cc4)n3)CC2)nc2ccc(C(=O)O)c(F)c21` [Example 2A-15, 2-[(4-{6-[(4-cyanobenzyl)oxy]pyridin-2-yl}piperidin-1-yl)methyl]-7-fluoro-1-(2-methoxyethyl)-1H-benzimidazole-6-carboxylic acid], the negative logarithm of the EC50 (pEC50) is 6.55 on human GLP-1R [1] and 7.66 at human GLP-1R [2]. Also, the Emax at human GLP-1R [1] (setting [3]) amounted to 91%; at human GLP-1R [2] (setting [4]) it was 87%.

In the case of `COCCn1c(CN2CCC(c3cccc(OCc4ccc(Cl)cc4F)n3)CC2)nc2ccc(C(=O)O)nc21` [Example 2A-17, 2-[(4-{6-[(4-chloro-2-fluorobenzyl)oxy]pyridin-2-yl}piperidin-1-yl)methyl]-3-(2-methoxyethyl)-3H-imidazo[4,5-b]pyridine-5-carboxylic acid], the pEC50 on human GLP-1R [1] is 5.92; at human GLP-1R [2] it was 7.62. Further, the Emax on human GLP-1R [1] (setting [3]) was 94%; on human GLP-1R [2] (setting [4]) it was 76%.

For `O=C(O)c1ccc2nc(CN3CCC(c4cccc(OCc5ccc(Cl)cc5F)n4)CC3)n(Cc3ncco3)c2n1` [Example 2A-18, 2-[(4-{6-[(4-chloro-2-fluorobenzyl)oxy]pyridin-2-yl}piperidin-1-yl)methyl]-3-(1,3-oxazol-2-ylmethyl)-3H-imidazo[4,5-b]pyridine-5-carboxylic acid], the pEC50 was 7.11 on human GLP-1R [1] and 8.22 on human GLP-1R [2]. Moreover, the Emax was 88% on human GLP-1R [1] (setting [3]) and 80% on human GLP-1R [2] (setting [4]).

Regarding `N#Cc1ccc(COc2cccc(C3CCN(Cc4nc5ccc(C(=O)O)nc5n4Cc4ncco4)CC3)n2)c(F)c1` [Example 2A-19, 2-[(4-{6-[(4-cyano-2-fluorobenzyl)oxy]pyridin-2-yl}piperidin-1-yl)methyl]-3-(1,3-oxazol-2-ylmethyl)-3H-imidazo[4,5-b]pyridine-5-carboxylic acid], the results for the pEC50 on human GLP-1R [1] and on human GLP-1R [2] were 6.82 and 8.10, respectively. The Emax came to 100% on human GLP-1R [1] (setting [3]) and 80% on human GLP-1R [2] (setting [4]).

Regarding `O=C(O)c1ccc2nc(CN3CCC(c4cccc(OCc5ccc(F)cc5F)n4)CC3)n(C[C@@H]3CCO3)c2n1` [Example 2A-20, 2-[(4-{6-[(2,4-difluorobenzyl)oxy]pyridin-2-yl}piperidin-1-yl)methyl]-3-[(2S)-oxetan-2-ylmethyl]-3H-imidazo[4,5-b]pyridine-5-carboxylic acid], the pEC50 on human GLP-1R [1] was 7.85; on human GLP-1R [2] it was 9.02. Moreover, the values for the Emax at human GLP-1R [1] (setting [3]) and at human GLP-1R [2] (setting [4]) were 95% and 80%, respectively.

Turning to `C[C@H]1CN(c2cccc(OCc3ccc(C#N)cc3F)n2)CCN1Cc1nc2ccc(C(=O)O)nc2n1Cc1ncco1` [Example 2A-21, 2-{[(2S)-4-{6-[(4-cyano-2-fluorobenzyl)oxy]pyridin-2-yl}-2-methylpiperazin-1-yl]methyl}-3-(1,3-oxazol-2-ylmethyl)-3H-imidazo[4,5-b]pyridine-5-carboxylic acid], the values for the pEC50 at human GLP-1R [1] and on human GLP-1R [2] were 6.66 and 8.07, respectively. For the same compound, the Emax at human GLP-1R [1] (setting [3]) amounted to 110%; at human GLP-1R [2] (setting [4]), 88%.

With `O=C(O)c1ccc2nc(CN3CCC(c4cccc(OCc5ccc(Cl)cc5F)n4)CC3)n(C[C@H]3CCO3)c2n1` [Example 2A-22, 2-[(4-{6-[(4-chloro-2-fluorobenzyl)oxy]pyridin-2-yl}piperidin-1-yl)methyl]-3-[(2R)-oxetan-2-ylmethyl]-3H-imidazo[4,5-b]pyridine-5-carboxylic acid], the figures for the pEC50 on human GLP-1R [1] and at human GLP-1R [2] were 6.72 and 7.85, respectively. Besides, the Emax at human GLP-1R [1] (setting [3]) worked out at 83%; on human GLP-1R [2] (setting [4]) it was 72%.

Regarding `O=C(O)c1ccc2nc(CN3CCC(c4cccc(OCc5ccc(Cl)cc5F)n4)CC3)n(C[C@@H]3CCO3)c2n1` [Example 2A-23, 2-[(4-{6-[(4-chloro-2-fluorobenzyl)oxy]pyridin-2-yl}piperidin-1-yl)methyl]-3-[(2S)-oxetan-2-ylmethyl]-3H-imidazo[4,5-b]pyridine-5-carboxylic acid], the results for the pEC50 on human GLP-1R [1] and on human GLP-1R [2] were 7.66 and 9.30, respectively. Also, the Emax on human GLP-1R [1] (setting [3]) stood at 96%; on human GLP-1R [2] (setting [4]), 73%.

As to `O=C(O)c1ccc2nc(CN3CCC(c4cccc(OCc5ccc(Cl)cc5F)n4)CC3)n(C[C@@H]3CCO3)c2c1` [Example 3A-01, 2-[(4-{6-[(4-chloro-2-fluorobenzyl)oxy]pyridin-2-yl}piperidin-1-yl)methyl]-1-[(2S)-oxetan-2-ylmethyl]-1H-benzimidazole-6-carboxylic acid], the values for the pEC50 at human GLP-1R [1] and at human GLP-1R [2] were 7.92 and 9.03, respectively. The Emax at human GLP-1R [1] (setting [3]) came out at 98%; at human GLP-1R [2] (setting [4]), 83%.

In the case of `N#Cc1ccc(COc2cccc(C3CCN(Cc4nc5ccc(C(=O)O)cc5n4C[C@@H]4CCO4)CC3)n2)c(F)c1` [Example 4A-01, 2-[(4-{6-[(4-cyano-2-fluorobenzyl)oxy]pyridin-2-yl}piperidin-1-yl)methyl]-1-[(2S)-oxetan-2-ylmethyl]-1H-benzimidazole-6-carboxylic acid], the Emax came out at 100% on human GLP-1R [1] and 79% at human GLP-1R [2] (read-out: Assay 1 Emax (%)).
